Source: patent US9757375B2, “Compounds that inhibit human DNA ligases and methods of treating cancer” (University of Maryland, Baltimore, priority 2007, dated 2017)
Entries after “also recorded” stand apart in the source; their conditions may differ. Like-named read-outs stand apart in the source and are kept apart here.

Legend:
[1] = test system: Human DNA ligases I, III and IV and T4 DNA ligase; test: Step 3 of the ligation reaction: ligation of preadenylated nick by non-adenylated ligase; type: biochemical; conditions: 100 μM, FIG. 3C
Protocol: To analyze step 3 of the ligation reaction, an adenylated labeled version of the 18-mer was prepared as described (24). The DNA substrate containing a preadenylated nick (0.5 pmol) and hLigI (0.05 pmol), hLigIIIβ (0.05 pmol), hLigIV/XRCC4 (0.1 pmol), or T4 DNA ligase (0.05 pmol) were incubated in ligation buffer without ATP, either in the presence or absence of the ligase inhibitors (100 μmol/L). Reactions were stopped by the addition of an equal volume of gel loading dye (95% formamide, 0.05% bromophenol blue, and 0.05% xylene cyanol). After heating at 95° C. for 5 min, DNA was separated by denaturing polyacrylamide gel electrophoresis. Labeled oligonucleotides were detected and quantitated in the dried gel by phosphorImager analysis (Molecular Dynamics).
Since the final two steps of the ligation reaction involve interactions with DNA, we examined the effects of the ligase inhibitors on the second (FIG. 3B) (The labeled ligase-adenylate form of human DNA ligases I, III and IV and T4 DNA ligase were incubated with a linear DNA substrate containing a single non-ligatable nick in the absence or presence of compounds 67, 82 and 189 (100 μM). After separation by denaturing gel electrophoresis, the labeled DNA-AMP complex was detected by phosphorimaging (26)) and third steps (FIG. 3C) of the ligation reaction using established assays (25,26) (Non-adenylated human DNA ligases I, III and IV and T4 DNA ligase were incubated with labeled DNA-AMP in the absence or presence of compounds 67, 82 and 189 (100 μM). After separation by denaturing gel electrophoresis, labeled ligated DNA was detected by phosphorimaging (25)).

[2] = test system: MCF7, HCT116, HeLa, and MCF10A cells; test: Survival assay on cell panel (FIG. 9); type: cell-based, human; conditions: Homo sapiens; cell line not stated
Text: FIG. 9. […] A, effect of L67 (left) and L189 (right) on the survival of MCF7 (Δ), HCT116 (□), HeLa (⋄), and MCF10A (upsidedown triangle) cells. B, normal breast epithelial MCF10A cells (open symbols) and breast cancer MCF7 cells (filled symbols) in the absence (circles) or presence of 3 μmol/L of L67 (squares) were exposed to increasing concentrations of MMS (left). Normal breast epithelial MCF10A cells (open symbols) and colon cancer HCT116 cells (filled symbols) in the absence (circles) or presence of 20 μmol/L of L189 (squares) were exposed to increasing doses of ionizing radiation (right). C, hLigI (I), hLigIIIα (III), and hLigIV (IV) were detected in extracts (400 μg) of the indicated cell lines by immunoblotting. To control for extract loading β-actin was also detected by immunoblotting.
For survival assays, cells were plated in 6 well plates and grown either in the absence or presence of ligase inhibitors. Where indicated, either MMS (0-50 μM) was added to the medium or the cells were irradiated in a Cs-137 irradiator (0-2.5 Gy). After two weeks, colonies were stained with crystal violet (Sigma) and then counted.

human DNA ligase IV = human DNA ligase IV (Homo sapiens, UniProt P49917); test: High-throughput fluorescence-based DNA joining (ligation) assay; type: biochemical; conditions: for inhibition of human DNA ligase IV, in words: in vitro screen
human DNA ligase IV, sequence (P49917 whole entry): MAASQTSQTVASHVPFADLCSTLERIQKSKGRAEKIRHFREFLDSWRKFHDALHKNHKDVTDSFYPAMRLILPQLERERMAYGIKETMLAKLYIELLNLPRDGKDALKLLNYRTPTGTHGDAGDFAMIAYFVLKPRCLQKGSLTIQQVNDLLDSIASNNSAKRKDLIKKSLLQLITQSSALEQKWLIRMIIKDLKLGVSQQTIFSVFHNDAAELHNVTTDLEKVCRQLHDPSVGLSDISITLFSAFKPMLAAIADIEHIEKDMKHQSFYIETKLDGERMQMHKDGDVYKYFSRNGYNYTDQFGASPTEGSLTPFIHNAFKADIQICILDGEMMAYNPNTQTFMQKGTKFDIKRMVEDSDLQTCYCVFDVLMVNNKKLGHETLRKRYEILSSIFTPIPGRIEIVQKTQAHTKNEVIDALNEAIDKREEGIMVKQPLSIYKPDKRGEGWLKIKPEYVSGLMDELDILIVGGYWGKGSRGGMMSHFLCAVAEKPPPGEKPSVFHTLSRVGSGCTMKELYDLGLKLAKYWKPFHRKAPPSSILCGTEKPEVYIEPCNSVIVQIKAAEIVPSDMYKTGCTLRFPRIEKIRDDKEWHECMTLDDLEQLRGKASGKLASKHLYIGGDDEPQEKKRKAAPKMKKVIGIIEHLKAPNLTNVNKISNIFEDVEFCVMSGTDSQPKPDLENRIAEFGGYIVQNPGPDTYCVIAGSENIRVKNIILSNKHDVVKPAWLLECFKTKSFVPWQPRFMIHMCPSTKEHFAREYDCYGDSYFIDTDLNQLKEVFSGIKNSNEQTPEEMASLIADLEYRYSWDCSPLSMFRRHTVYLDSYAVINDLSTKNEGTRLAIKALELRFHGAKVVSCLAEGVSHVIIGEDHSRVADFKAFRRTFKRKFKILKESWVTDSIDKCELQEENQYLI
human DNA ligase IV, sequence (Q13426 whole entry partner): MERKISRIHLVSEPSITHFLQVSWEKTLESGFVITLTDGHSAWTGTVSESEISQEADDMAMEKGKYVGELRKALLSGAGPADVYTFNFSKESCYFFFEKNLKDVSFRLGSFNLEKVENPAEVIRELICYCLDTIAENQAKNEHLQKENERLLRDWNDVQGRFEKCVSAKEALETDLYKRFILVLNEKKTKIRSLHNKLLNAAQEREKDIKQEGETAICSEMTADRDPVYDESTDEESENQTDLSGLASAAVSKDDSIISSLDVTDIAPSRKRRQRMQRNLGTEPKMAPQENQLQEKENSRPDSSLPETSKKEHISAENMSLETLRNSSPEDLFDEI
Outline: (§1)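 Ligation joins an AF488-labelled and a BHQ1-labelled oligonucleotide. After denaturation and renaturation with a 20-fold excess of unlabelled competitor strand, the product forms a quenched hairpin, so joining is read as loss of 518 nm fluorescence. Ligase III used a nicked duplex; ligase IV used two duplexes with short complementary single-strand ends.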

human DNA ligase III = biological target: T1, human DNA ligase III (Homo sapiens, UniProt P49916); test: as above; type: biochemical; conditions: for inhibition at 100 µM: read-out: In vitro % inhib hLigIII 100; for % activity Inhibition hLigIII 100 uM: Ø not defined (0 in Table 5A)
T1 sequence (P49916 1-862 isoform P49916-4): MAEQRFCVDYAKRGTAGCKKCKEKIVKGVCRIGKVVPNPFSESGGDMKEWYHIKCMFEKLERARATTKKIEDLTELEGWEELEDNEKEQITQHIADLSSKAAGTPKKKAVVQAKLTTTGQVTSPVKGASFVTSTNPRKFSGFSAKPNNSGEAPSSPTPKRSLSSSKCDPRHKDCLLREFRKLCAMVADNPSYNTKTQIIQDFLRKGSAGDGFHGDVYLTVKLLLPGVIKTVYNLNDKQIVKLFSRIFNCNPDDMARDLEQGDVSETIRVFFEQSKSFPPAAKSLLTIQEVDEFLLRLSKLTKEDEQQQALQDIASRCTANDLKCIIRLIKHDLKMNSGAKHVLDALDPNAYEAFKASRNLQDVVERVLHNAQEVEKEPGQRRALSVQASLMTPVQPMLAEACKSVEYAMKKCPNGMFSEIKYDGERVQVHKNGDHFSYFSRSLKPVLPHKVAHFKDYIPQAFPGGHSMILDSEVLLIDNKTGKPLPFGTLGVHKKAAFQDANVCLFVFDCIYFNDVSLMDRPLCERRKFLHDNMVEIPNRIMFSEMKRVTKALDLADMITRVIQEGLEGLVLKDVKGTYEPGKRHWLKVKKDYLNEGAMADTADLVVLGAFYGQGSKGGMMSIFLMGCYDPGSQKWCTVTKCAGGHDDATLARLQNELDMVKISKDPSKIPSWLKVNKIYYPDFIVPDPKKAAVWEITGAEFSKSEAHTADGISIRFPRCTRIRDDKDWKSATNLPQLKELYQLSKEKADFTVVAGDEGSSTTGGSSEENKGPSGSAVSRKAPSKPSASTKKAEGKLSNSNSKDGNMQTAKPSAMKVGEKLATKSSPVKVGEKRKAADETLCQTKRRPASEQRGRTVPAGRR
Outline: as §1

hLigIV/XRCC4 = hLigIV/XRCC4 (Homo sapiens, UniProt P49917); test: Radioactive gel-based DNA ligation assay; type: biochemical; parameters: concentration or dose not given beside the values
hLigIV/XRCC4, sequence (P49917 whole entry): as the sequence (P49917 whole entry) above
hLigIV/XRCC4, sequence (Q13426 whole entry partner): as the sequence (Q13426 whole entry partner) above

T4 DNA ligase = biological target: T2, T4 DNA ligase (Enterobacteria phage T4, UniProt P00970); test: High-throughput fluorescence-based DNA joining assay, non-specific inhibitor control; type: biochemical, bacteriophage T4
T2 construct: purchased NEB
T2 sequence (P00970 1-487): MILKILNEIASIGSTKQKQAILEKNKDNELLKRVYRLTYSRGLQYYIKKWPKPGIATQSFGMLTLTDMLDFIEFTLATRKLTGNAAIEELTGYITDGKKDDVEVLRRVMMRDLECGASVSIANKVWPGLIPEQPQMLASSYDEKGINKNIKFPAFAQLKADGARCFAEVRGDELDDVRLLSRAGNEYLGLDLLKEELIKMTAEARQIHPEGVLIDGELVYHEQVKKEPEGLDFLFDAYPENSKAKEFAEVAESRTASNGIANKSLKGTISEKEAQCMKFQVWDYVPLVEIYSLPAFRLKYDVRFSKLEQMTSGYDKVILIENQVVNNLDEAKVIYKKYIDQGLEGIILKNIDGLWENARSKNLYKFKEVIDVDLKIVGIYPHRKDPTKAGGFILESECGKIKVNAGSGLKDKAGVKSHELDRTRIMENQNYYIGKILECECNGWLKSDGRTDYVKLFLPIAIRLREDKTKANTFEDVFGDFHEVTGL
Outline: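 This counter-screen used a FRET-based DNA joining assay. Duplicate reactions held 10 pmol nicked DNA substrate and 10 units T4 DNA ligase, with or without 100 μmol/L compound. T4 ligase lacks the DNA-binding domain targeted in silico, so compounds inhibiting it were flagged as non-specific, likely DNA-binding.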

hLigI = biological target: T3, hLigI (Homo sapiens, UniProt P18858); test: High-throughput fluorescence-based DNA joining (ligation) assay; type: biochemical; conditions: for inhibition of hLigI (DNA ligase I), in words: in vitro screen, 100 μmol/L, the 15 hLigI inhibitors inhibited by >50%
T3 construct: made in house
T3 sequence (P18858 whole entry): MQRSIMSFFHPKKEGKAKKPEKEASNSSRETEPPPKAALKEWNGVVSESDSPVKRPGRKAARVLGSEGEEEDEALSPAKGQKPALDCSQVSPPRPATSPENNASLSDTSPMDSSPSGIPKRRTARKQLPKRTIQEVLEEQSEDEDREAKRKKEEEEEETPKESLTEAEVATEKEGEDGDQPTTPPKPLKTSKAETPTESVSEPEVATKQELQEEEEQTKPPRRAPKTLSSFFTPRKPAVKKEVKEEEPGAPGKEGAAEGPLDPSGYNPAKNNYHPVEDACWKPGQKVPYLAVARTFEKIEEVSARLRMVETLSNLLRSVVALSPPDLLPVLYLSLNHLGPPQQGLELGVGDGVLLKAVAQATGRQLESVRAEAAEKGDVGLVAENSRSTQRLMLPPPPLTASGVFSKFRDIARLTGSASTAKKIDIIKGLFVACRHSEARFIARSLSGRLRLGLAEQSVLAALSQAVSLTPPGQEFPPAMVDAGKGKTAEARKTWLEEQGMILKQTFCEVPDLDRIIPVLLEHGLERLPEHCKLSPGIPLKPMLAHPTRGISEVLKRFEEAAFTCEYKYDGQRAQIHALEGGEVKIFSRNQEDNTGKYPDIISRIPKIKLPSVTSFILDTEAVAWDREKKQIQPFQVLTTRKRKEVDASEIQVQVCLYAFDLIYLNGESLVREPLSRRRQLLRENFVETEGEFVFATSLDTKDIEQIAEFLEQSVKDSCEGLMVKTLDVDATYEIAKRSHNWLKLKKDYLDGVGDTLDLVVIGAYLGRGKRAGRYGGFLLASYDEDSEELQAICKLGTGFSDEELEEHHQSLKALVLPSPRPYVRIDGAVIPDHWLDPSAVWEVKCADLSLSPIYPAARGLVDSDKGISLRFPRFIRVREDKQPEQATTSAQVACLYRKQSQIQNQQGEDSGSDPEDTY
Outline: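 Nicked DNA substrate (10 pmol) was incubated with 0.25 pmol hLigI, with or without 100 μmol/L test compound, in duplicate. Afterwards the DNA was denatured and renatured with a 20-fold excess of unmodified oligonucleotide. Ligation forms an AF488/BHQ1 hairpin, read as reduced fluorescence at 518 nm.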

hLigIIIβ = biological target: T4, hLigIIIβ (Homo sapiens, UniProt P49916); test: Radioactive gel-based DNA ligation assay; type: biochemical; conditions: grades ±, Ø (key not given)
T4 sequence (P49916 1-862 isoform P49916-4): T1 sequence (P49916 1-862 isoform P49916-4)

[3] = 100 μM, read-out: In vitro % inhib hLigIV 100
[4] = 100 uM, Ø not defined (0 in Table 5A), read-out: % activity Inhibition hLigIV 100 uM
[5] = 100 μM, read-out: In vitro % inhib T4 100
[6] = 100 μM, read-out: In vitro % inhib hLigI 100
[7] = 100 uM, Ø not defined (0 in Table 5A)

O=C(O)CN1C(=O)C(=O)c2ccccc21 [Compound 76]
inhibition of step 3 of the ligation reaction [1]: inhibit step 3

O=C(O)c1cnn2c(C(F)(F)F)cc(-c3ccco3)nc12 [Compound 215]
EC50 [2]: > 100 µM | inhibition at 100 µM (human DNA ligase IV; [3]): 61 ± 1% | inhibition at 100 µM (human DNA ligase IV; [4]): 60.7 ± 1.3% | inhibition of human DNA ligase IV, in words (human DNA ligase IV): specific for DNA ligase IV | inhibition at 100 µM (human DNA ligase III; 100 μM): 0% | % activity Inhibition hLigIII 100 uM (human DNA ligase III): Ø | % activity Inhibition hLigIV gel (hLigIV/XRCC4): 53% | % activity Inhibition LigT4 100 uM (T4 DNA ligase): Ø | inhibition at 100 µM (T4 DNA ligase; [5]): 0% | % activity Inhibition hLigI 100 uM (hLigI; 100 uM): Ø | inhibition at 100 µM (hLigI; [6]): 0%

NS(=O)(=O)c1ccc(CCNC(=O)CCS(=O)(=O)c2ccc(Br)cc2)cc1 [Compound 113]
In vitro % inhib hLigIV 100 (μM) (human DNA ligase IV; 100 μM): 83 ± 5% | % activity Inhibition hLigIV 100 uM (human DNA ligase IV; [7]): >50% | inhibition of human DNA ligase IV, in words (human DNA ligase IV): specifically inhibits both DNA ligases I and IV | In vitro % inhib hLigIII 100 (μM) (human DNA ligase III; 100 μM): 0% | % activity Inhibition hLigIII 100 uM (human DNA ligase III): Ø | % activity Inhibition hLigIII gel (hLigIIIβ): Ø | % activity Inhibition hLigIV gel (hLigIV/XRCC4): 83% | % activity Inhibition LigT4 100 uM (T4 DNA ligase): 5.4 ± 4.5% | In vitro % inhib T4 100 (μM) (T4 DNA ligase; 100 μM): 5 ± 5% | % activity Inhibition hLigI 100 uM (hLigI; 100 uM): 53.4 ± 7.6% | In vitro % inhib hLigI 100 (μM) (hLigI; 100 μM): 53 ± 8% | hLigI_Inh % (100 μM) (hLigI; 100 μM, percentage of values obtained with DMSO alone): 53.4 ± 7.6% | inhibition of hLigI (DNA ligase I), in words (hLigI): inhibited hLigI; also recorded: specifically inhibits both DNA ligases I and IV

O=C(O)Cc1cncc(Br)c1 [Compound 122]
EC50 [2]: > 100 µM | inhibition at 100 µM (human DNA ligase IV; [3]): 50 ± 5% | inhibition at 100 µM (human DNA ligase IV; [4]): 16.1 ± 19.1% | inhibition of human DNA ligase IV, in words (human DNA ligase IV): specific for DNA ligase IV | inhibition at 100 µM (human DNA ligase III; 100 μM): 0% | % activity Inhibition hLigIII 100 uM (human DNA ligase III): Ø | % activity Inhibition hLigIV gel (hLigIV/XRCC4): 50% | % activity Inhibition LigT4 100 uM (T4 DNA ligase): Ø | inhibition at 100 µM (T4 DNA ligase; [5]): 0% | % activity Inhibition hLigI 100 uM (hLigI; 100 uM): Ø | inhibition at 100 µM (hLigI; [6]): 0%

CSc1ccc(C(=O)O)s1 [Compound 1]
inhibition at 100 µM (human DNA ligase IV; [3]): 0% | % activity Inhibition hLigIV 100 uM (human DNA ligase IV; [7]): Ø | inhibition at 100 µM (human DNA ligase III; 100 μM): 0% | % activity Inhibition hLigIII 100 uM (human DNA ligase III): Ø | % activity Inhibition hLigIII gel (hLigIIIβ): Ø | inhibition at 100 µM (T4 DNA ligase; [5]): 0% | inhibition at 100 µM (T4 DNA ligase; read-out: % activity Inhibition LigT4 100 uM): 0% | inhibition at 100 µM (hLigI; 100 uM, read-out: % activity Inhibition hLigI 100 uM): 40.3 ± 8.6% | inhibition at 100 µM (hLigI; [6]): 40 ± 9% | inhibition of hLigI (DNA ligase I), in words (hLigI): specific for DNA ligase I
